Assay results taken from patent US12240862B2, “Inhibitors of peptidylarginine deiminases” (Gilead Sciences, Inc., priority 2020, dated 2025).

Target: T1, human PAD4 (Homo sapiens, UniProt Q9UM07)
T1 construct: human PAD4 (NM_012387), A2P663, was PCR amplified; His-SUMO (N, cleaved yes); made in house; host or cells: E. coli BL21(DE3)
Assay: In vitro PAD4 BAEE biochemical assay
Settings: human PAD4, BAEE substrate; 5 nM PAD4, 2 mM calcium chloride, 3 mM BAEE; geometric mean of multiple experiments
Method in brief: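 Ammonia release from BAEE deimination monitored by o-phthalaldehyde amine coupling (1 h, 25 °C) after EDTA stop. Final conditions: 5 nM tag-free recombinant human PAD4 (E. coli), 2 mM CaCl2, 3 mM BAEE, pH 7.6 MOPS with DTT; 30 min compound preincubation, then 2 h reaction at 25 °C.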

T1 sequence (Q9UM07 2-663): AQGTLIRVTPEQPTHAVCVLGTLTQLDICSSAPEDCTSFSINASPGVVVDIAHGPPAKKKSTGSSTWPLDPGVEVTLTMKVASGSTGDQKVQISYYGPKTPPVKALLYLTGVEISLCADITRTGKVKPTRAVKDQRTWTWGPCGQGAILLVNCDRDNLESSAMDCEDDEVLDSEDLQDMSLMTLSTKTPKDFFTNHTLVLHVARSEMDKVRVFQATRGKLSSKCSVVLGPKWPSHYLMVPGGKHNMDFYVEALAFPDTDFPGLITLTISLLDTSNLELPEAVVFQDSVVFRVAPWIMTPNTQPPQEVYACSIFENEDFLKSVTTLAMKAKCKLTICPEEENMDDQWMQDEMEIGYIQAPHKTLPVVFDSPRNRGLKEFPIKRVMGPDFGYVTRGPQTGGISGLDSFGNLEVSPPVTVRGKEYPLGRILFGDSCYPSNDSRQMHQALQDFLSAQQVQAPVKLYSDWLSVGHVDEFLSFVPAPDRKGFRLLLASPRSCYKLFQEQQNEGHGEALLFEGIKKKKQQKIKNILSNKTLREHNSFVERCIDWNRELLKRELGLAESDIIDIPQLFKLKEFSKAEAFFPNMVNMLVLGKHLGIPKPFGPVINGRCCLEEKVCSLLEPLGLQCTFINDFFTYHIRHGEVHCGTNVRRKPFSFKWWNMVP

IC50 [nM] | Structure (SMILES)
270 | CCCC(CC(=O)N1CCCC1)c1ccc2cc(-c3nc4cc(C(=O)N5[C@H]6CC[C@@H]5[C@H](N)C6)cc(OC)n4c3C)n(CC3CC3)c2n1 (stereo partly drawn) [Example 541, 3-[2-[7-[(1~{R},2~{R}, 4~{S})-2-amino-7-azabicyclo[2.2.1]heptane-7-carbonyl]-5-methoxy-3-methylimidazo[1,2-a]pyridin-2-yl]-1-(cyclopropylmethyl)pyrrolo [2,3-b]pyridin-6-yl]-1-pyrrolidin-1-ylhexan-1-one]
59.8 | COc1cc(C(=O)N2[C@H]3CC[C@@H]2[C@H](N)C3)cc2nc(-c3cc4ccc([C@@H](C)NC(=O)C5(C)CC5)nc4n3CC3CC3)c(C)n12 [Example 151, ~{N}-[(1~{R})-1-[2-[7-[(1~{R},2~{R},4~{S})-2-amino-7-azabicyclo[2.2.1]heptane-7-carbonyl]-5-methoxy-3-methylimidazo [1,2-a]pyridin-2-yl]-1-(cyclopropylmethyl)pyrrolo [2,3-b]pyridin-6-yl]ethyl]-1-methylcyclopropane-1-carboxamide]
37.2 | COc1cc(C(=O)N2[C@H]3CC[C@@H]2[C@H](N)C3)cc2nc(-c3cc4ccc([C@@H](C)NC(=O)C5C(F)(F)C56CC6)nc4n3CC3CC3)c(C)n12 (stereo partly drawn) [Example 53, ~{N}-[(1~{R})-1-[2-[7-[(1~{R},2~{R}, 4~{S})-2-amino-7-azabicyclo[2.2.1]heptane-7-carbonyl]-5-methoxy-3-methylimidazo[1,2-a]pyridin-2-yl]-1-(cyclopropylmethyl)pyrrolo[2,3-b]pyridin-6-yl]ethyl]-2,2-difluorospiro[2.2] pentane-1-carboxamide]
220 | COc1cc(C(=O)N2[C@H]3CC[C@@H]2[C@H](N)C3)cc2nc(-c3cc4ccc(C5=CC(=O)N(C)CC5)nc4n3CC3CC3)c(C)n12 [Example 558, 4-[2-[7-[(1~{R},2~{R}, 4~{S})-2-amino-7-azabicyclo[2.2.1]heptane-7-carbonyl]-5-methoxy-3-methylimidazo[1,2-a]pyridin-2-yl]-1-(cyclopropylmethyl)pyrrolo [2,3-b]pyridin-6-yl]-1-methyl-2,3-dihydropyridin-6-one]
487 | COc1cc(C(=O)N2CC[C@H]3CCCN[C@H]3C2)cc2nc(-c3cc4ccc([C@@H](C)NC(=O)C56CC(F)(C5)C6)nc4n3CC3CC3)c(C)n12 [Example 31, ~{N}-[(1~{R})-1-[2-[7-[(4~{a}~{R}, 8~{a}~{R})-2,3,4,4~{a},5,6,8,8~{a}-octahydro-1~{H}-1,7-naphthyridine-7-carbonyl]-5-methoxy-3-methylimidazo [1,2-a]pyridin-2-yl]-1-(cyclopropylmethyl)pyrrolo[2,3-b]pyridin-6-yl]ethyl]-3-fluorobicyclo[1.1.1] pentane-1-carboxamide]
33.2 | COc1cc(C(=O)N2[C@H]3CC[C@@H]2[C@H](N)C3)cc2nc(-c3cc4ccc([C@@H](C)NC(=O)C5CCOCC5)nc4n3CC3CC3)c(C3CC3)n12 [Example 98]
2150 | CCc1ccc2cc(-c3nc4cc(C(=O)N5CCC[C@@H](N)C5)cc(OC)n4c3C3CCC3)n(CC3CC3)c2n1 [Example 576, [(3~{R})-3-aminopiperidin-1-yl]-[3-cyclobutyl-2-[1-(cyclopropylmethyl)-6-ethylpyrrolo[2,3-b]pyridin-2-yl]-5-methoxyimidazo [1,2-a]pyridin-7-yl]methanone]
754 | COc1cc(C(=O)N2[C@@H]3CC[C@@H](N)[C@H]2CC3)cc2nc(-c3cc4ccc(N(C(F)F)S(C)(=O)=O)nc4n3CC3CC3)c(CC3CC3)n12 [Example 403, ~{N}-[2-[7-[(1~{R},2~{R}, 5~{R})-2-amino-8-azabicyclo[3.2.1]octane-8-carbonyl]-3-(cyclopropylmethyl)-5-methoxyimidazo [1,2-a]pyridin-2-yl]-1-(cyclopropylmethyl)pyrrolo [2,3-b]pyridin-6-yl]-~{N}-(difluoromethyl) methanesulfonamide]
341 | COc1cc(C(=O)N2C[C@H]3CC[C@@H]2[C@@H]3N)cc2nc(-c3cc4ccc([C@@H](C)Nc5ncccn5)nc4n3CC3CC3)c(C)n12 [Example 266, ((1R,4R,7R)-7-amino-2-azabicyclo[2.2.1]heptan-2-yl)(2-(1-(cyclopropylmethyl)-6-((R)-1-(pyrimidin-2-ylamino)ethyl)-1H-pyrrolo[2,3-b]pyridin-2-yl)-5-methoxy-3-methylimidazo [1,2-a]pyridin-7-yl) methanone]
56.2 | COc1cc(C(=O)N2[C@H]3CC[C@@H]2[C@H](N)C3)cc2nc(-c3cc4ccc([C@@H](C)NC(=O)CCN5C(=O)NC(C)(C)C5=O)nc4n3CC3CC3)c(C)n12 [Example 148, ~{N}-[(1~{R})-1-[2-[7-[(1~{R},2~{R},4~{S})-2-amino-7-azabicyclo[2.2.1]heptane-7-carbonyl]-5-methoxy-3-methylimidazo [1,2-a]pyridin-2-yl]-1-(cyclopropylmethyl)pyrrolo [2,3-b]pyridin-6-yl]ethyl]-3-(4,4-dimethyl-2,5-dioxoimidazolidin-1-yl)propenamide]
103 | COc1cc(C(=O)N2[C@H]3CC[C@@H]2[C@H](N)C3)cc2nc(-c3cc4ccc([C@@H](C)NC(=O)NCc5ccccc5)nc4n3CC3CC3)c(C)n12 [Example 233, 1-[(1~{R})-1-[2-[7-[(1~{R},2~{R},4~{S})-2-amino-7-azabicyclo[2.2.1]heptane-7-carbonyl]-5-methoxy-3-methylimidazo [1,2-a]pyridin-2-yl]-1-(cyclopropylmethyl)pyrrolo [2,3-b]pyridin-6-yl]ethyl]-3-benzylurea]
403 | COc1cc(C(=O)N2[C@H]3CC[C@@H]2[C@H](N)C3)cc2nc(-c3cc4ccc([C@@H](C)NC(=O)C56CC(c7ccccc7)(C5)C6)nc4n3CC3CC3)c(C)n12 [Example 147, ~{N}-[(1~{R})-1-[2-[7-[(1~{R},2~{R},4~{S})-2-amino-7-azabicyclo[2.2.1]heptane-7-carbonyl]-5-methoxy-3-methylimidazo [1,2-a]pyridin-2-yl]-1-(cyclopropylmethyl)pyrrolo [2,3-b]pyridin-6-yl]ethyl]-3-phenylbicyclo[1.1.1]pentane-1-carboxamide]
253 | COc1cc(C(=O)N2[C@H]3CC[C@@H]2[C@H](N)C3)cc2nc(-c3cc4ccc([C@@H](C)NC(=O)c5ccccc5C(F)F)nc4n3CC3CC3)c(C)n12 [Example 11, ~{N}-[(1~{R})-1-[2-[7-[(1~{R},2~{R},4~{S})-2-amino-7-azabicyclo [2.2.1]heptane-7-carbonyl]-5-methoxy-3-methylimidazo [1,2-a]pyridin-2-yl]-1-(cyclopropylmethyl)pyrrolo[2,3-b]pyridin-6-yl]ethyl]-2-(difluoromethyl) benzamide]
131 | COc1cc(C(=O)N2CCC[C@@H](N)C2)cc2nc(-c3cc4ccc(OC5CCN(C)C5=O)nc4n3CC3CC3)c(C)n12 (stereo partly drawn) [Example 623, 3-[2-[7-[(3~{R})-3-aminopiperidine-1-carbonyl]-5-methoxy-3-methylimidazo[1,2-a]pyridin-2-yl]-1-(cyclopropylmethyl)pyrrolo [2,3-b]pyridin-6-yl]oxy-1-methylpyrrolidin-2-one]
202 | COc1cc(C(=O)N2[C@@H]3CC[C@@H](N)[C@H]2CC3)cc2nc(-c3cc4ccc(N(C(F)F)S(C)(=O)=O)nc4n3CC(F)(F)F)c(C)n12 [Example 495, ~{N}-[2-[7-[(1~{R},2~{R}, 5~{R})-2-amino-8-azabicyclo[3.2.1]octane-8-carbonyl]-5-methoxy-3-methylimidazo[1,2-a]pyridin-2-yl]-1-(2,2,2-trifluoroethyl)pyrrolo [2,3-b]pyridin-6-yl]-~{N}-(difluoromethyl) methanesulfonamide]
100 | COc1cc(C(=O)N2[C@H]3CC[C@@H]2[C@H](N)C3)cc2nc(-c3cc4ccc(N5CCCOC5=O)nc4n3CC3CC3)c(C)n12 [Example 464, 3-[2-[7-[(1~{R},2~{R}, 4~{S})-2-amino-7-azabicyclo[2.2.1]heptane-7-carbonyl]-5-methoxy-3-methylimidazo[1,2-a]pyridin-2-yl]-1-(cyclopropylmethyl)pyrrolo [2,3-b]pyridin-6-yl]-1,3-oxazinan-2-one]
7180 | COc1cc(C(=O)N2CC[C@@H]3CCNC[C@@H]32)cc2nc(-c3cc4ccc(N(C(F)F)S(C)(=O)=O)nc4n3CC3CC3)c(C)n12 (single isomer, unassigned) [Example 417]
297 | COc1cc(C(=O)N2[C@H]3CC[C@@H]2[C@H](N)C3)cc2nc(-c3cc4ccc([C@@H](C)NC(=O)c5ccccc5F)nc4n3CC3CC3)c(C)n12 [Example 15, ~{N}-[(1~{R})-1-[2-[7-[(1~{R}, 2~{R},4~{S})-2-amino-7-azabicyclo [2.2.1]heptane-7-carbonyl]-5-methoxy-3-methylimidazo [1,2-a]pyridin-2-yl]-1-(cyclopropylmethyl)pyrrolo[2,3-b]pyridin-6-yl]ethyl]-2-fluorobenzamide]
34.4 | COc1cc(C(=O)N2[C@H]3CC[C@@H]2[C@H](N)C3)cc2nc(-c3cc4ccc(N5CCN(C)CCS5(=O)=O)nc4n3CC3CC3)c(C)n12 [Example 443, [(1~{R},2~{R},4~{S})-2-amino-7-azabicyclo [2.2.1]heptan-7-yl]-[2-[1-(cyclopropylmethyl)-6-(5-methyl-1,1-dioxo-1,2,5-thiadiazepan-2-yl)pyrrolo[2,3-b]pyridin-2-yl]-5-methoxy-3-methylimidazo [1,2-a]pyridin-7-yl] methanone]
233 | COc1cc(C(=O)N2C[C@H]3CCC[C@@H]2[C@@H]3N)cc2nc(-c3cc4ccc(N(C(F)F)S(C)(=O)=O)nc4n3CC3CC3)c(C)n12 [Example 330, N-[2-[7-[(1R,5R,8R)-8-amino-6-azabicyclo[3.2.1]octane-6-carbonyl]-5-methoxy-3-methyl-imidazo [1,2-a]pyridin-2-yl]-1-(cyclopropylmethyl)pyrrolo [2,3-b]pyridin-6-yl]-N-(difluoromethyl) methanesulfonamide]
70 | COc1cc(C(=O)N2[C@H]3CC[C@@H]2[C@H](N)C3)cc2nc(-c3cc4ccc([C@@H](C)NC(=O)N5CCC5)nc4n3CC3CC3)c(C)n12 [Example 247]
